± gives the expanded uncertainty stated by the source.
Assay: molar enthalpy of transition or fusion
Details: 298.15 K; Crystal; Flow calorimetry

## Cc1cccc2c1sc1ccccc12 [4-methyldibenzothiophene]
  molar enthalpy of transition or fusion: 21.6 ± 0.335 kcal/mol

Source: the NIST ThermoML archive (doi:10.1016/j.jct.2009.08.010)
